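How tested: cells in 96-well plates exposed to compound for 48 hours at five concentrations. Here, GI50 denotes the concentration required for 50% inhibition of growth.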 Calls of active or inactive are those of the source. Rule as the data show it: active = GI50 up to about 1.1 µM and inactive = higher. Starred links: 1 amine or outer side, 2 acyl side, 3 side chain; linkers in the order of their positions; H or OH if unused. Positions of bridges follow the written chain, without caps; N, C: chain ends. Non-standard residues stand in square brackets, D forms with d. Residues, ends and D or L forms follow the SMILES beside them. ξ: configuration not given here. X37 = CC[C@H](C)[C@@H](N[*:1])[C@@H](O)CC(=O)O[C@H](C(=O)[C@H](C)C(=O)[*:2])C(C)C; NMeY = CN[C@@H](Cc1ccc(O)cc1)C(=O)O; dNMeL = CN[C@H](CC(C)C)C(=O)O; ξΔPro = O=C(O)C1C=CCN1
Experiments:
Test in all cases: DTP human tumour cell line panel, 48 h
MCF7 = test system: MCF7
A549 = test system: A549
CCRF-CEM = test system: CCRF-CEM
MDA-N = test system: MDA-N
SR = test system: SR
UACC-62 = test system: UACC-62
786-0 = test system: 786-0
SNB-75 = test system: SNB-75
NCI/ADR-RES = test system: NCI/ADR-RES
KM12 = test system: KM12
OVCAR-3 = test system: OVCAR-3
NCI-H226 = test system: NCI-H226
HOP-92 = test system: HOP-92
BT-549 = test system: BT-549
ACHN = test system: ACHN
A498 = test system: A498
TK-10 = test system: TK-10
OVCAR-4 = test system: OVCAR-4
UACC-257 = test system: UACC-257

Row | Compound | GI50 (MCF7) | GI50 (A549) | GI50 (CCRF-CEM) | GI50 (MDA-N) | GI50 (SR) | GI50 (UACC-62) | GI50 (786-0) | GI50 (SNB-75) | GI50 (NCI/ADR-RES) | GI50 (KM12) | GI50 (OVCAR-3) | GI50 (NCI-H226) | GI50 (HOP-92) | GI50 (BT-549) | GI50 (ACHN) | GI50 (A498) | GI50 (TK-10) | GI50 (OVCAR-4) | GI50 (UACC-257)
1 | Cc1cn(C2CC(O)C(COC(N)=O)O2)c(=O)[nH]c1=O (stereo not drawn) | > 100 µM (inactive) | > 100 µM (inactive) | > 100 µM (inactive) | > 100 µM (inactive) | > 100 µM (inactive) | > 100 µM (inactive) | > 100 µM (inactive) | 71.1 µM (inactive) | > 100 µM (inactive) | > 100 µM (inactive) | > 100 µM (inactive) | > 100 µM (inactive) | > 100 µM (inactive) | > 100 µM (inactive) | > 100 µM (inactive) | > 100 µM (inactive) | > 100 µM (inactive) | > 100 µM (inactive) | > 100 µM (inactive)
2 | CC[C@H](C)[C@H]1NC(=O)[C@@H](NC(=O)[C@@H](CC(C)C)N(C)C(=O)C2C=CCN2)[C@@H](C)OC(=O)[C@H](Cc2ccc(OC)cc2)N(C)C(=O)[C@@H]2CCCN2C(=O)[C@H](CC(C)C)NC(=O)[C@@H](C)C(=O)[C@H](C(C)C)OC(=O)C[C@@H]1O (stereo partly drawn) (H-[ξΔPro][dNMeL]T[X37]LP[NMeY](Me); ester 3-C) | < 0.005 µM (active) | < 0.005 µM (active) | < 0.005 µM (active) | < 0.005 µM (active) | < 0.005 µM (active) | < 0.005 µM (active) | < 0.005 µM (active) | < 0.005 µM (active) | 0.0617 µM (active) | < 0.005 µM (active) | < 0.005 µM (active) | < 0.005 µM (active) | < 0.005 µM (active) | < 0.005 µM (active) | < 0.005 µM (active) | 0.00594 µM (active) | < 0.005 µM (active) | < 0.005 µM (active) | < 0.005 µM (active)
3 | N=c1oc2ccc([N+](=O)[O-])cc2cc1C(=O)Nc1ccccn1 | 12.2 µM (inactive) | > 100 µM (inactive) | 31.5 µM (inactive) | 49.2 µM (inactive) | 58.1 µM (inactive) | 34.2 µM (inactive) | 19.2 µM (inactive) | 60.1 µM (inactive) | 97.3 µM (inactive) | 34.3 µM (inactive) | 20.6 µM (inactive) | 71.9 µM (inactive) | 71.9 µM (inactive) | 48.4 µM (inactive) | 35.5 µM (inactive) | > 100 µM (inactive) | – | 90.8 µM (inactive) | > 100 µM (inactive)
4 | Cc1cc(/N=N/c2c(O)ccc3ccccc23)ccc1/N=N/c1cccc([N+](C)(C)C)c1 | 7.1 µM (inactive) | 12.1 µM (inactive) | 7.16 µM (inactive) | 12.9 µM (inactive) | 7.69 µM (inactive) | 14.7 µM (inactive) | 21 µM (inactive) | 4 µM (inactive) | 74.1 µM (inactive) | 3.37 µM (inactive) | 5.21 µM (inactive) | 6.41 µM (inactive) | 15.6 µM (inactive) | 3.08 µM (inactive) | 23.8 µM (inactive) | 44.7 µM (inactive) | 29.5 µM (inactive) | > 27.1 µM (inactive) | 12.2 µM (inactive)
5 | CCCCC(=O)NC1(c2cc3ccccc3s2)CCCCC1 | 85.9 µM (inactive) | > 100 µM (inactive) | 19.4 µM (inactive) | > 100 µM (inactive) | > 100 µM (inactive) | 62.1 µM (inactive) | > 100 µM (inactive) | > 100 µM (inactive) | > 100 µM (inactive) | > 100 µM (inactive) | > 100 µM (inactive) | > 100 µM (inactive) | > 100 µM (inactive) | > 100 µM (inactive) | > 100 µM (inactive) | > 100 µM (inactive) | > 100 µM (inactive) | > 100 µM (inactive) | > 100 µM (inactive)
6 | COc1ccc(CNc2nc3cc(C(F)(F)F)ccc3nc2C(=O)O)cc1OC | 23.2 µM (inactive) | 35.6 µM (inactive) | 18.4 µM (inactive) | 36.5 µM (inactive) | 23.9 µM (inactive) | 20.5 µM (inactive) | 32.9 µM (inactive) | 47.9 µM (inactive) | 34 µM (inactive) | 32.1 µM (inactive) | 22.3 µM (inactive) | 64.1 µM (inactive) | 27.2 µM (inactive) | 41.2 µM (inactive) | 26.1 µM (inactive) | 27.5 µM (inactive) | – | 48.2 µM (inactive) | 34.2 µM (inactive)
7 | COc1ccc(/C=C/C(=O)/C=C/c2ccc(OC)cc2)cc1 | 47.8 µM (inactive) | 46 µM (inactive) | 31.8 µM (inactive) | 19 µM (inactive) | 22.5 µM (inactive) | > 100 µM (inactive) | 46.5 µM (inactive) | 38.9 µM (inactive) | 97.1 µM (inactive) | 24 µM (inactive) | 32.1 µM (inactive) | 22.4 µM (inactive) | 32.5 µM (inactive) | 29.4 µM (inactive) | 89.1 µM (inactive) | > 100 µM (inactive) | 73.3 µM (inactive) | 43.5 µM (inactive) | 20 µM (inactive)
8 | O=[N+]([O-])/C=C/c1cn(CCCCCCCCCCCCn2cc(/C=C/[N+](=O)[O-])c3ccccc32)c2ccccc12 | > 100 µM (inactive) | > 100 µM (inactive) | > 100 µM (inactive) | > 100 µM (inactive) | > 100 µM (inactive) | > 100 µM (inactive) | > 100 µM (inactive) | – | > 100 µM (inactive) | > 100 µM (inactive) | > 100 µM (inactive) | > 100 µM (inactive) | > 100 µM (inactive) | > 100 µM (inactive) | > 100 µM (inactive) | > 100 µM (inactive) | > 100 µM (inactive) | > 100 µM (inactive) | > 100 µM (inactive)
9 | O=C1CSC(/C=C/c2ccccc2)N1c1ccc(-c2ccc(-n3c(-c4ccccc4)nc4ccccc4c3=O)cc2)cc1 (stereo not drawn) | 22.6 µM (inactive) | 24 µM (inactive) | 20.3 µM (inactive) | 23.4 µM (inactive) | 28.3 µM (inactive) | 24.3 µM (inactive) | 13.4 µM (inactive) | 0.562 µM (active) | 21.1 µM (inactive) | 17.3 µM (inactive) | 21.2 µM (inactive) | – | 18 µM (inactive) | 17.2 µM (inactive) | 23.6 µM (inactive) | 42.2 µM (inactive) | 39.5 µM (inactive) | 15.8 µM (inactive) | 30.3 µM (inactive)
10 | CC1(C)OC2COC(c3n[nH]c4c(=O)[nH]c(=O)[nH]c34)C2O1 (stereo not drawn) | > 100 µM (inactive) | > 100 µM (inactive) | – | > 100 µM (inactive) | > 100 µM (inactive) | > 100 µM (inactive) | > 100 µM (inactive) | – | > 100 µM (inactive) | > 100 µM (inactive) | > 100 µM (inactive) | > 100 µM (inactive) | 74 µM (inactive) | > 100 µM (inactive) | > 100 µM (inactive) | > 100 µM (inactive) | > 100 µM (inactive) | > 100 µM (inactive) | > 100 µM (inactive)
11 | Cc1nn(-c2ccccc2)c2c1C(c1ccc(Cl)cc1)NC(=S)N2 (stereo not drawn) | 28.4 µM (inactive) | 24.6 µM (inactive) | 20.9 µM (inactive) | 29.4 µM (inactive) | 36.6 µM (inactive) | 22.3 µM (inactive) | 15.6 µM (inactive) | 48.5 µM (inactive) | 24.3 µM (inactive) | 23.1 µM (inactive) | 32.4 µM (inactive) | 25.9 µM (inactive) | 7.18 µM (inactive) | 25.9 µM (inactive) | 20.7 µM (inactive) | 23.1 µM (inactive) | 18.7 µM (inactive) | 54.5 µM (inactive) | 36.6 µM (inactive)
12 | O=C(Cn1ccc(=O)[nH]c1=O)Nc1ccc(C(=O)O)c(O)c1 | > 100 µM (inactive) | > 100 µM (inactive) | > 100 µM (inactive) | > 100 µM (inactive) | > 100 µM (inactive) | > 100 µM (inactive) | > 100 µM (inactive) | > 100 µM (inactive) | > 100 µM (inactive) | > 100 µM (inactive) | > 100 µM (inactive) | > 100 µM (inactive) | > 100 µM (inactive) | > 100 µM (inactive) | > 100 µM (inactive) | > 100 µM (inactive) | > 100 µM (inactive) | > 100 µM (inactive) | > 100 µM (inactive)
13 | CCCC(=O)Nc1cc(/C=C/C(=O)N2CC(CCl)c3c2cc([N+](=O)[O-])c2ccccc32)n(C)c1 (stereo not drawn) | 13.8 µM (inactive) | 8.89 µM (inactive) | 3.84 µM (inactive) | > 100 µM (inactive) | 0.796 µM (active) | 8.38 µM (inactive) | > 60.8 µM (inactive) | 6.12 µM (inactive) | 8.93 µM (inactive) | – | > 100 µM (inactive) | > 100 µM (inactive) | > 100 µM (inactive) | > 73.3 µM (inactive) | 1.32 µM (inactive) | 8.49 µM (inactive) | > 100 µM (inactive) | > 100 µM (inactive) | > 100 µM (inactive)
14 | CCC1(CCSC(=N)N)C(=O)NC(=O)NC1=O | > 100 µM (inactive) | > 100 µM (inactive) | > 100 µM (inactive) | > 100 µM (inactive) | > 100 µM (inactive) | > 100 µM (inactive) | > 100 µM (inactive) | – | > 100 µM (inactive) | > 100 µM (inactive) | > 100 µM (inactive) | > 100 µM (inactive) | > 100 µM (inactive) | > 100 µM (inactive) | > 100 µM (inactive) | > 100 µM (inactive) | > 100 µM (inactive) | > 100 µM (inactive) | > 100 µM (inactive)

Reference: ChEMBL document CHEMBL1201862, “PubChem BioAssay data set” (2004)
